Reference: article PMC7277094 (Biomolecules, 2020)
Several values for one entry are separate records, joined by “and”; a condition that tells them apart may be missing. Equal entries are not always repeated. Where two headings read alike, the source gives them in different places.

Experiments:
Tlp3 LBD [1] = target: T1, Tlp3 LBD (Campylobacter jejuni subsp. jejuni, UniProt Q0P864); assay: Isothermal titration calorimetry (ITC); type: binding, C. jejuni strain NCTC 11168; settings: for Binding to Tlp3 LBD detected by ITC: ligand at 10 mM; for Binding to Tlp3 LBD detected by ITC / Kd: 10 µM Tlp3 LBD; for ∆H: ITC binding enthalpy; for ∆H / ∆S / Kd: 25 °C; for ∆S: ITC binding entropy
Procedure: Tlp3 LBD was dialysed against a buffer containing 100 mM Tris-HCl pH 8.0 and 150 mM NaCl. […] Calorimetry measurements were conducted on a VP-ITC MicroCal calorimeter (Malvern Instruments, UK) at 25 °C. The Tlp3 LBD sample (10 µM) in a 1.45 mL reaction cell was titrated with 25 successive 10 µL injections of ligand solution at a spacing of 200 s. All measurements were made in triplicate and corrected for heat changes measured when the ligand was titrated into the buffer. The data were integrated and normalised for protein concentration to generate binding isotherms.

Tlp3 LBD [2] = assay: Co-crystallisation with Tlp3 LBD and X-ray electron density analysis; type: binding, C. jejuni; settings: co-crystallised with 8 mM ligand; 1.4–1.5 Å resolution
Procedure: The solution was then clarified by centrifugation at 13,000 g, 4 °C for 20 min and protein crystallisation was carried out by the hanging drop vapour diffusion method using crystallisation conditions similar to those described previously. Briefly, crystals were grown in 2 µL hanging drops suspended over 500 µL reservoir solution containing 22% (w/v) polyethylene glycol 3350, 100 mM sodium citrate pH 5.0 and 200 mM ammonium sulphate. The hanging drop was prepared by adding 1 µL of the protein/ligand mix to 1 µL of the reservoir solution. Crystals of all Tlp3 LBD/ligand complexes had similar unit-cell parameters and belonged to space group P2_1 (Table 2), with two molecules in the asymmetric unit.
To perform data collection at cryogenic temperatures, the crystals were briefly soaked in a cryoprotectant solution consisting of 26% (w/v) polyethylene glycol 3350, 100 mM sodium citrate pH 5.0, 200 mM ammonium sulphate, 10% (v/v) glycerol, and 10 mM respective ligand, and then flash-cooled by plunging them into liquid nitrogen. X-ray diffraction data were collected at 100 K on the MX1 and MX2 beamlines of the Australian Synchrotron. The data were processed using iMOSFLM [65] and scaled with AIMLESS [66] from the CCP4 software suite.
The crystal structures were determined using molecular replacement with PHASER [68] and the protein coordinates of the Tlp3 LBD/isoleucine complex (PDB code, 4XMR) as a search model. The models were refined with PHENIX [69] and manually rebuilt where necessary using COOT [70]. Analysis of the stereochemical quality of the final models was performed using MOLPROBITY [71]. The accessible surface area was calculated using AREAIMOL from CCP4. The structure figures were produced using PyMOL 4.1 [72].

C. jejuni Δtlp3 mutant = assay: Nutrient-depleted hard agar plug chemotaxis assay, Δtlp3 mutant; type: cell-based, C. jejuni NCTC 11168; settings: CI > 1 attractant, < 1 repellent
Tlp3 LBD [3] = target: T1, Tlp3 LBD; assay: Fluorescence-based thermal shift assay; type: binding, C. jejuni strain NCTC 11168; settings: for Thermal Shift ∆Tm: 20 μM protein, 0.8–1.6 mM Biolog compound, Tm free protein 56.3 °C; for ΔTm at 5000 µM: read-out: Thermal Shift ∆Tm
Source text: Tlp3 LBD from C. jejuni strain NCTC 11168 was expressed in E. coli, purified according to the previously published procedure and used for high-throughput screening against the compounds from the Biolog Phenotype Microarray (PM) libraries PM1, PM3B, and PM5 using thermal shift assays. […] Each plate contains 95 compounds and a negative control (water). Thermal-shift-based screening is based on the phenomenon that ligand-binding alters thermal stability of the protein, resulting in an increase or decrease in the protein’s melting temperature (Tm). Screening was performed by following the protocol previously described by McKellar et al., with minor modifications. The compounds in the Biolog PM plates were dissolved in 50 μL of water, yielding a final concentration of 10–20 mM (as indicated by the manufacturer). Each assay was performed in a 25 μL volume and contained 20 μM protein, 0.8–1.6 mM Biolog compound, 10 mM Tris-HCl pH 8.0, 150 mM NaCl, and 10× SYPRO orange reagent (5000× stock, catalogue number S5692; Sigma-Aldrich). The samples were heated from 35 °C to 80 °C at a ramp rate of 0.5 °C min^−1 using a Rotor-Gene Q real-time PCR cycler (Qiagen, Venlo, Netherlands). Protein denaturation was monitored by following changes in the SYPRO Orange fluorescence emission (λex 530 nm/λem 555 nm) that result from the dye binding to the exposed hydrophobic protein regions. All experiments were performed in triplicate. The midpoint of denaturation (the melting temperature Tm) was calculated by fitting the data to the Boltzmann sigmoidal equation for the two-state unfolding model using GraphPad Prism (version 7.02) (GraphPad Software, La Jolla, CA, USA). The thermal shift assay with the three potential ligands identified using in silico screening was performed at a ligand concentration of 5 mM, with other conditions the same.

C. jejuni WT strain = assay: Nutrient-depleted hard agar plug chemotaxis assay, WT strain; type: cell-based, C. jejuni NCTC 11168; settings: plugs prepared from 50–200 mM compound, CI > 1 attractant, < 1 repellent
Tlp3 LBD [4] = target: T1, Tlp3 LBD; parameters: method as in PMID 26457436; settings: L-isoleucine not among ligands titrated here; listed as footnoted to previous study ref 32; cited from earlier work
Tlp3 LBD Tyr118Ala = test system: Tlp3 LBD Tyr118Ala; parameters: method as in PMID 26457436; settings: Tyr118Ala vs wild-type Tlp3 LBD ref 32; cited from earlier work
[5] = single-site model, NB = no binding detected by ITC

T1 sequence (Q0P864 entry or part of it): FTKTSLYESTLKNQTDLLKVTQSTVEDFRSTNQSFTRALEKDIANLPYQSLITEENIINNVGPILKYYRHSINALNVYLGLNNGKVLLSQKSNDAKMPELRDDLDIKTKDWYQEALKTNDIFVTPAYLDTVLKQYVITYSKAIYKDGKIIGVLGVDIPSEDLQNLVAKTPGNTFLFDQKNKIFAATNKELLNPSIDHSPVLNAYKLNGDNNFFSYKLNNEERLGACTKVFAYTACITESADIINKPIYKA

**Q.** What does the source list for `NCCCC[C@H](N)C(=O)O` [L-lysine]?
**A.** Binding to Tlp3 LBD detected by ITC (Tlp3 LBD [1]): no binding; Electron density for ligand bound to Tlp3 LBD in crystal (Tlp3 LBD [2]): no electron density

**Q.** Which “Chemotactic response (chemotactic index CI)” value (C. jejuni Δtlp3 mutant) does the source give for `N[C@@H](CO)C(=O)O` [serine, L-serine] here?
**A.** did not affect

**Q.** Which results are given for `N[C@@H](Cc1ccccc1)C(=O)O` [L-phenylalanine]?
**A.** Thermal Shift ∆Tm (Tlp3 LBD [3]): −0.3 ± 0.4 °C; ∆H (Tlp3 LBD [1]): -5.9 ± 0.3 kcal/mol; ∆S (Tlp3 LBD [1]): −5.44 cal mol^−1 deg^−1; Kd (Tlp3 LBD [1]; [5]): 730 ± 55 µM; Chemotactic response (chemotactic index CI) (C. jejuni WT strain): Tlp3-dependent attractant response

**Q.** With `O=C(O)CC(O)C(=O)O` (stereo not drawn) [malic acid] as the molecule, how does the “Electron density for ligand bound to Tlp3 LBD in crystal” value (Tlp3 LBD [2]) read?
**A.** no electron density

**Q.** For `C[C@H](N)C(=O)N[C@H](C(=O)O)[C@H](C)O` [Ala-Thr], which “Thermal Shift ∆Tm” value (Tlp3 LBD [3]) is on record?
**A.** 1.1 ± 0.3 °C

**Q.** And the “Binding to Tlp3 LBD detected by ITC” value (Tlp3 LBD [1])?
**A.** no binding

**Q.** With `CC(C)C[C@H](N)C(=O)O` [L-leucine] as the molecule, how does the “Thermal Shift ∆Tm” value (Tlp3 LBD [3]) read?
**A.** 2.4 ± 0.2 °C

**Q.** And the “∆H” value (Tlp3 LBD [1])?
**A.** -4.6 ± 0.1 kcal/mol

**Q.** What about the “∆S” value (Tlp3 LBD [1]) of the same molecule?
**A.** 2.9 cal mol^−1 deg^−1

**Q.** And the Kd (Tlp3 LBD [1]; [5])?
**A.** 105 ± 6 µM

**Q.** For `C[C@H](N)C(=O)O` [L-alanine], which “Thermal Shift ∆Tm” value (Tlp3 LBD [3]) is on record?
**A.** −0.6 ± 0.7 °C

**Q.** And the “∆H” value (Tlp3 LBD [1])?
**A.** -150.2 ± 54.5 kcal/mol

**Q.** What about the “∆S” value (Tlp3 LBD [1]) of the same molecule?
**A.** −495.50 cal mol^−1 deg^−1

**Q.** What about the Kd (Tlp3 LBD [1]; 50 mM ligand) of the same molecule?
**A.** ~5000 µM and 5000 µM

**Q.** What about the Kd (Tlp3 LBD [1]; [5]) of the same molecule?
**A.** 4980 ± 917 µM

**Q.** And the “Chemotactic response (chemotactic index CI)” value (C. jejuni WT strain)?
**A.** Tlp3-dependent attractant response

**Q.** Which “Thermal Shift ∆Tm” value (Tlp3 LBD [3]) does the source give for `CCC[C@@H](N)C(=O)O` [α-amino-N-valeric acid] here?
**A.** 1.4 ± 0.3 °C

**Q.** What about the “∆H” value (Tlp3 LBD [1]) of the same molecule?
**A.** -6.5 ± 0.2 kcal/mol

**Q.** What about the “∆S” value (Tlp3 LBD [1]) of the same molecule?
**A.** −4.5 cal mol^−1 deg^−1

**Q.** What about the Kd (Tlp3 LBD [1]; [5]) of the same molecule?
**A.** 168 ± 9 µM

**Q.** For `N=C(N)NCCC[C@H](N)C(=O)O` [L-arginine], which “Binding to Tlp3 LBD detected by ITC” value (Tlp3 LBD [1]) is on record?
**A.** no binding

**Q.** And the “Electron density for ligand bound to Tlp3 LBD in crystal” value (Tlp3 LBD [2])?
**A.** no electron density

**Q.** What does the source list for `N[C@@H](CC(=O)O)C(=O)O` [L-aspartic acid]?
**A.** Binding to Tlp3 LBD detected by ITC (Tlp3 LBD [1]): no binding; Electron density for ligand bound to Tlp3 LBD in crystal (Tlp3 LBD [2]): no electron density

**Q.** What does the source list for `CC[C@H](C)[C@H](N)C(=O)O` [L-isoleucine]?
**A.** ∆H (Tlp3 LBD [4]): -4.4 ± 0.2 kcal/mol; ∆S (Tlp3 LBD [4]): 3.6 cal mol^−1 deg^−1; Reduction in binding affinity on Tyr118Ala substitution (Tlp3 LBD Tyr118Ala): ≥ 35 fold

**Q.** Which results are given for `CCC(C)(C)[C@H](N)C(=O)O` [3-methyl-L-isoleucine]?
**A.** ΔTm at 5000 µM (Tlp3 LBD [3]): 2 ± 0.1 °C; ∆H (Tlp3 LBD [1]): -5.7 ± 0.2 kcal/mol; ∆S (Tlp3 LBD [1]): −4.03 cal mol^−1 deg^−1; Kd (Tlp3 LBD [1]; [5]): 484 ± 30 µM; Reduction of binding affinity (two methyl groups at Position 3) (Tlp3 LBD [1]; compared with single methyl substitution at Position 3 (L-isoleucine)): at least 5 fold

**Q.** What does the source list for `CC(C)[C@H](C)[C@H](N)C(=O)O` [4-methyl-L-isoleucine]?
**A.** ΔTm at 5000 µM (Tlp3 LBD [3]): 2.8 ± 0.3 °C; ∆H (Tlp3 LBD [1]): -5.1 ± 0.2 kcal/mol; ∆S (Tlp3 LBD [1]): −1.01 cal mol^−1 deg^−1; Kd (Tlp3 LBD [1]; [5]): 324 ± 20 µM

**Q.** For `Nc1ccn([C@H]2C[C@H](O)[C@@H](CO)O2)c(=O)n1` [2-deoxycytidine], which “Thermal Shift ∆Tm” value (Tlp3 LBD [3]) is on record?
**A.** 1.4 ± 0.8 °C

**Q.** What about the “Binding to Tlp3 LBD detected by ITC” value (Tlp3 LBD [1]) of the same molecule?
**A.** no binding

**Q.** With `c1ncc2nc[nH]c2n1` [purine] as the molecule, how does the “Binding to Tlp3 LBD detected by ITC” value (Tlp3 LBD [1]) read?
**A.** did not bind

**Q.** Which “Thermal Shift ∆Tm” value (Tlp3 LBD [3]) does the source give for `COC(=O)C(C)=O` [methyl pyruvate] here?
**A.** −1.8 ± 0.0 °C

**Q.** What about the “Binding to Tlp3 LBD detected by ITC” value (Tlp3 LBD [1]) of the same molecule?
**A.** no binding

**Q.** Which ΔTm at 5000 µM (Tlp3 LBD [3]) does the source give for `CCC[C@@H](C)C(N)C(=O)O` (stereo in doubt) [β-methyl-L-norleucine] here?
**A.** 3.7 ± 0.2 °C

**Q.** What about the “∆H” value (Tlp3 LBD [1]) of the same molecule?
**A.** -6.2 ± 0.2 kcal/mol

**Q.** And the “∆S” value (Tlp3 LBD [1])?
**A.** −4.77 cal mol^−1 deg^−1

**Q.** And the Kd (Tlp3 LBD [1]; [5])?
**A.** 294 ± 14 µM

**Q.** Which “Thermal Shift ∆Tm” value (Tlp3 LBD [3]) does the source give for `CC(C)[C@H](N)C(=O)O` [L-valine] here?
**A.** 1.3 ± 0.1 °C

**Q.** And the “∆H” value (Tlp3 LBD [1])?
**A.** -4.4 ± 0.2 kcal/mol

**Q.** And the “∆S” value (Tlp3 LBD [1])?
**A.** 0.8 cal mol^−1 deg^−1

**Q.** What about the Kd (Tlp3 LBD [1]; [5]) of the same molecule?
**A.** 405 ± 27 µM
